Measurements published in patent US20090306133A1, “New Acetyl Coenzyme A Carboxylase (ACC) Inhibitors And Uses In Treatments Of Obesity And Diabetes Mellitus - 087” (ASTRAZENECA AB, priority 2007, published 2009).

Columns and labels:
[1] = biological target: Human recombinant Acetyl-CoA Carboxylase 1 (ACC1) (Homo sapiens, UniProt Q13085); test: Assay X: ACC1 inhibition, inorganic phosphate (malachite green); assay type: biochemical; settings: Assay X: 37° C., 1.5 h, 5 min pre-incubation
Summary of the method: (§1)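 Human recombinant enzyme pre-incubated 5 min with compound before substrate addition; reaction run 1.5 h, then inorganic phosphate detected by malachite green absorbance at 660 nm. Ten concentrations tested in triplicate; apparent IC50 from four-parameter curve fit.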

[2] = biological target: Human recombinant Acetyl-CoA Carboxylase 2 (ACC2) (Homo sapiens, UniProt O00763); test: Assay X: ACC2 inhibition, inorganic phosphate (malachite green); assay type: biochemical; settings: Assay X: 37° C., 1.5 h, 5 min pre-incubation
Summary of the method: as §1

Human recombinant Acetyl-CoA Carboxylase 2 (ACC2), sequence (O00763 whole entry): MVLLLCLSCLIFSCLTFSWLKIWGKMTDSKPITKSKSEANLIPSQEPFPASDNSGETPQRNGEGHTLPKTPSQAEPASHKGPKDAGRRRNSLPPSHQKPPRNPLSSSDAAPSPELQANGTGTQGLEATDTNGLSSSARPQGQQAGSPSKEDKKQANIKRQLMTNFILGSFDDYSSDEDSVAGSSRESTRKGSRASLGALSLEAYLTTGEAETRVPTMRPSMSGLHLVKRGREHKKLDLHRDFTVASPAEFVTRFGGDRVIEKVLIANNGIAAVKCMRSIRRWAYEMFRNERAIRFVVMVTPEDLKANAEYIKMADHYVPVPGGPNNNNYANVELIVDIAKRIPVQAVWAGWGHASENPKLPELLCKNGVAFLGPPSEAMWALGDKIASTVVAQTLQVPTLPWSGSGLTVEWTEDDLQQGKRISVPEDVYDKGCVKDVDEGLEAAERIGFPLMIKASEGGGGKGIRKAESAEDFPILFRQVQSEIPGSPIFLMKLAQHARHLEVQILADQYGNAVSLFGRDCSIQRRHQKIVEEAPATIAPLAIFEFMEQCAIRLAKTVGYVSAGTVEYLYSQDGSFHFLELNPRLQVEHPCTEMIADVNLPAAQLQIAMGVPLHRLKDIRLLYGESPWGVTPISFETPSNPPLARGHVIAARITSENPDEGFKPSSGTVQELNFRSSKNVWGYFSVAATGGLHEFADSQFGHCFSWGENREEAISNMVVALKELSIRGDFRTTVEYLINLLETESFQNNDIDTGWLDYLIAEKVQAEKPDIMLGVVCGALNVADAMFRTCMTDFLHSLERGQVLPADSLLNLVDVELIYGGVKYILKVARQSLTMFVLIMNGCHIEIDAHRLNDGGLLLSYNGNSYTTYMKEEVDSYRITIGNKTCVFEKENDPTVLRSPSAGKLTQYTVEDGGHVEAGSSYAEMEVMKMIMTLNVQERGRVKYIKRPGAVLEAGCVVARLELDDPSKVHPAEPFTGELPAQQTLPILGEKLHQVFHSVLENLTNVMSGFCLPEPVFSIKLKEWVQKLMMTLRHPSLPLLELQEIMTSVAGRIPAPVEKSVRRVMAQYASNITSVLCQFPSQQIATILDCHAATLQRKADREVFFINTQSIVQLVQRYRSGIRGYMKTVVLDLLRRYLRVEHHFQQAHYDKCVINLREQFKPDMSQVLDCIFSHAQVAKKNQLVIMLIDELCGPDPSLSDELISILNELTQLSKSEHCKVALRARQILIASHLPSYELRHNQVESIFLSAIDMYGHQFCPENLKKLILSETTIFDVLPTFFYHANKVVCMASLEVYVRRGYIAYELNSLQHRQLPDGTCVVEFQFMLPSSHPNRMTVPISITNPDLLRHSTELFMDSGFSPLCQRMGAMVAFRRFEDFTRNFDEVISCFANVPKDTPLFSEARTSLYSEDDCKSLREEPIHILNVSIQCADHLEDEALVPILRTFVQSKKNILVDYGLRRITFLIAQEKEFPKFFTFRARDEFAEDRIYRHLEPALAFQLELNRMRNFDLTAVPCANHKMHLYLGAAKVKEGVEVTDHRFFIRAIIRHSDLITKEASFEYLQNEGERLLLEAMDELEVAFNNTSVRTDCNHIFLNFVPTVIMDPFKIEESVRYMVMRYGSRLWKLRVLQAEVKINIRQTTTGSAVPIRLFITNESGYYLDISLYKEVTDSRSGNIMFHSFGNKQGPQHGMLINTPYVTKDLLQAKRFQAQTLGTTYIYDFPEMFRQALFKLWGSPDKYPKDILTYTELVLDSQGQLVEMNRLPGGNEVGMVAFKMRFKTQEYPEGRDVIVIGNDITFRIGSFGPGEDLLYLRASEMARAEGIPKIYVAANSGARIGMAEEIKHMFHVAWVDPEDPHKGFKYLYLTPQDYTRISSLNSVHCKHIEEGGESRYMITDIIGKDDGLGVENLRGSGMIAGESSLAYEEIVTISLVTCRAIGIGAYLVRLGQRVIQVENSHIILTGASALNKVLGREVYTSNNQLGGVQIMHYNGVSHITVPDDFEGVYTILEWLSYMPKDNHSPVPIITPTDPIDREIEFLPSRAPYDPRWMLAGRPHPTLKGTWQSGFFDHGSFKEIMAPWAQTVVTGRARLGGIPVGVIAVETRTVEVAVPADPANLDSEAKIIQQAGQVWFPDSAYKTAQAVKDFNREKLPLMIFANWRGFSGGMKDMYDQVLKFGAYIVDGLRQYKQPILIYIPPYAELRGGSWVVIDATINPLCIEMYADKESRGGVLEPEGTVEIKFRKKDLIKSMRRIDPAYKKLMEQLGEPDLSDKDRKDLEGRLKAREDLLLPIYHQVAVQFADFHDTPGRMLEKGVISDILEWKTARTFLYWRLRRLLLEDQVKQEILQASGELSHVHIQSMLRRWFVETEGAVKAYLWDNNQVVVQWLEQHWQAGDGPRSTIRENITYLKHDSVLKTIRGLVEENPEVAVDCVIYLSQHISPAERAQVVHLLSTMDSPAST

For `COC1CN(CCC2CCN(c3cc(C(=O)NC[C@H]4CC[C@H](CNC(=O)OC(C)(C)C)CC4)c4ccccc4n3)CC2)C1` [Example 229, tert-Butyl{[trans-4-({[(2-{4-[2-(3-methoxyazetidin-1-yl)ethyl]piperidin-1-yl}quinolin-4-yl)carbonyl]amino}-methyl)cyclohexyl]-methyl}carbamate], the IC50 [1] was 920 nM and the IC50 [2] was 110 nM.
Work on `CC(C)(C)OC(=O)NC[C@H]1CC[C@H](CNC(=O)c2cc(N3CCC(CCN4CCCC4)CC3)nc3ccccc23)CC1` [Example 231, tert-Butyl[(trans-4-{[({2-[4-(2-pyrrolidin-1-ylethyl)piperidin-1-yl]quinolin-4-yl}carbonyl)amino]-methyl}cyclohexyl)-methyl]carbamate] yielded an IC50 [1] of 700 nM and an IC50 [2] of 80 nM.
Compound `CN(CCO)CCC1CCN(c2cc(C(=O)NC[C@H]3CC[C@H](CNC(=O)OC(C)(C)C)CC3)c3ccccc3n2)CC1` [Example 232, tert-Butyl({trans-4-[({[2-(4-{2-[(2-hydroxyethyl)(methyl)-amino]ethyl}piperidin-1-yl)quinolin-4-yl]carbonyl}amino)-methyl]cyclohexyl}-methyl)carbamate] has an IC50 [1] of 1290 nM and an IC50 [2] of 140 nM.
`CC(C)(C)OC(=O)NC[C@H]1CC[C@H](CNC(=O)c2cc(N3CCC(CCN4CC(O)C4)CC3)nc3ccccc23)CC1` [Example 233, tert-Butyl {[trans-4-({[(2-{4-[2-(3-hydroxyazetidin-1-yl)ethyl]piperidin-1-yl}quinolin-4-yl)carbonyl]amino}methyl)cyclohexyl]methyl}carbamate] gave an IC50 [1] of 1020 nM and an IC50 [2] of 100 nM.
Work on `CC(C)(C)OC(=O)NC[C@H]1CC[C@H](CNC(=O)c2cc(N3CCC(CCN4CCC4)CC3)nc3ccccc23)CC1` [Example 234, tert-Butyl [(trans-4-{[({2-[4-(2-azetidin-1-ylethyl)piperidin-1-yl]quinolin-4-yl}carbonyl)amino]methyl}cyclohexyl)methyl]carbamate] yielded an IC50 [1] of 950 nM and an IC50 [2] of 110 nM.
Compound `CC(C)(C)OC(=O)NC[C@H]1CC[C@H](CNC(=O)c2cc(N3CCC(CCN4CC(C(=O)O)C4)CC3)nc3ccccc23)CC1` [Example 235, 1-{2-[1-(4-{[(trans-4-{[(tert-Butoxycarbonyl)amino]methyl}cyclohexyl)methyl]-carbamoyl}quinolin-2-yl)piperidin-4-yl]ethyl}azetidine-3-carboxylic Acid] has an IC50 [1] of 1840 nM and an IC50 [2] of 230 nM.
Work on `CC(C)(C)OC(=O)NC[C@H]1CC[C@H](CNC(=O)c2cc(N3CCC(CCN4CC(N)C4)CC3)nc3ccccc23)CC1` [Example 236, tert-Butyl {[trans-4-({[(2-{4-[2-(3-aminoazetidin-1-yl)ethyl]piperidin-1-yl}quinolin-4-yl)carbonyl]amino}methyl)cyclohexyl]methyl}carbamate] yielded an IC50 [1] of 550 nM and an IC50 [2] of 80 nM.
`CN(C)CC(F)CC1CCN(c2cc(C(=O)NC[C@H]3CC[C@H](CNC(=O)OC(C)(C)C)CC3)c3ccccc3n2)CC1` (stereo partly drawn) [Example 237, tert-Butyl {[trans-4-({[(2-{4-[3-(dimethylamino)-2-fluoropropyl]piperidin-1-yl}quinolin-4-yl)carbonyl]amino}methyl)cyclohexyl]methyl}carbamate] was tested, and the IC50 [1] was 1090 nM and the IC50 [2] was 140 nM.
In the case of `CN(C)CCOC1CN(c2cc(C(=O)NC[C@H]3CC[C@H](CNC(=O)OC(C)(C)C)CC3)c3ccccc3n2)C1` [Example 238, tert-Butyl {[trans-4-({[(2-{3-[2-(dimethylamino)ethoxy]azetidin-1-yl}quinolin-4-yl)carbonyl]amino}methyl)cyclohexyl]methyl}carbamate], the IC50 [1] is reported as 4450 nM and the IC50 [2] is reported as 630 nM.
Work on `CC(C)(C)OC(=O)NC[C@H]1CC[C@H](CNC(=O)c2cc(-c3cn[nH]c3)nc(-c3cccc(CN)c3)c2)CC1` [Example 239, tert-Butyl [(trans-4-{[({2-[3-(aminomethyl)phenyl]-6-(1H-pyrazol-4-yl)pyridin-4-yl}carbonyl)amino]methyl}cyclohexyl)methyl]carbamate] yielded an IC50 [1] of 740 nM and an IC50 [2] of 350 nM.
`CC(C)(C)OC(=O)NC[C@H]1CC[C@H](CNC(=O)c2cc(-c3cccnc3)nc(-c3cccc(CN)c3)c2)CC1` [Example 240, tert-Butyl [(trans-4-{[({6-[3-(aminomethyl)phenyl]-2,3′-bipyridin-4-yl}carbonyl)amino]methyl}cyclohexyl)methyl]carbamate] gave an IC50 [1] of 1080 nM and an IC50 [2] of 360 nM.
`CC(C)(C)OC(=O)NC[C@H]1CC[C@H](CNC(=O)c2cc(-c3ccc(N)nc3)nc(-c3cccc(CN)c3)c2)CC1` [Example 241, tert-Butyl [(trans-4-{[({6′-amino-6-[3-(aminomethyl)phenyl]-2,3′-bipyridin-4-yl}carbonyl)amino]methyl}cyclohexyl)methyl]carbamate] was tested, and the IC50 [1] was 260 nM and the IC50 [2] was 110 nM.
Compound `CN(C)CCn1cc(-c2cc(C(=O)NC[C@H]3CC[C@H](CNC(=O)OC(C)(C)C)CC3)c3ccccc3n2)cn1` [Example 242, tert-Butyl {[trans-4-({[(2-{1-[2-(dimethylamino)ethyl]-1H-pyrazol-4-yl}quinolin-4-yl)carbonyl]amino}methyl)cyclohexyl]methyl}carbamate] has an IC50 [1] of 1330 nM and an IC50 [2] of 240 nM.
Compound `CC(C)(C)OC(=O)NC[C@H]1CC[C@H](CNC(=O)c2cc(-c3cnn(CCO)c3)nc3ccccc23)CC1` [Example 243, tert-Butyl [(trans-4-{[({2-[1-(2-hydroxyethyl)-1H-pyrazol-4-yl]quinolin-4-yl}carbonyl)amino]methyl}cyclohexyl)methyl]carbamate] has an IC50 [1] of 1930 nM and an IC50 [2] of 610 nM.
`CC(C)(C)OC(=O)NC[C@H]1CC[C@H](CNC(=O)c2cc(N3CCC(CCNCCF)CC3)nc3ccccc23)CC1` [Example 244] showed an IC50 [1] of 1250 nM and an IC50 [2] of 150 nM.
For `CN(CCF)CCC1CCN(c2cc(C(=O)NC[C@H]3CC[C@H](CNC(=O)OC(C)(C)C)CC3)c3ccccc3n2)CC1` [Example 245, tert-Butyl ({trans-4-[({[2-(4-(2-((2-fluoroethyl)(methyl)amino)ethyl}piperidin-1-yl)quinolin-4-yl]carbonyl}amino)methyl]cyclohexyl}methyl)carbamate], the IC50 [1] was 1400 nM and the IC50 [2] was 180 nM.
